Assay results as given in ChEMBL document CHEMBL1201862, “PubChem BioAssay data set” (2004).
Active and inactive are the calls of the source.

Key:
[1] = target: Alkaline phosphatase, placental type (Homo sapiens, UniProt P05187); assay: human placental alkaline phosphatase inhibition – biochemical, luminescence, confirmation (AID 1512); assay type: functional
Aminopeptidase N = target: T1, Aminopeptidase N (Plasmodium falciparum FcB1/Columbia, UniProt O96935); assay: malaria alanyl aminopeptidase activity blockers – biochemical, fluorogenic H-Leu-NHMec substrate, 1536-well (AID 1445); parameters: species or system Plasmodium falciparum 3D7, 3D7
T1 sequence (O96935 whole entry): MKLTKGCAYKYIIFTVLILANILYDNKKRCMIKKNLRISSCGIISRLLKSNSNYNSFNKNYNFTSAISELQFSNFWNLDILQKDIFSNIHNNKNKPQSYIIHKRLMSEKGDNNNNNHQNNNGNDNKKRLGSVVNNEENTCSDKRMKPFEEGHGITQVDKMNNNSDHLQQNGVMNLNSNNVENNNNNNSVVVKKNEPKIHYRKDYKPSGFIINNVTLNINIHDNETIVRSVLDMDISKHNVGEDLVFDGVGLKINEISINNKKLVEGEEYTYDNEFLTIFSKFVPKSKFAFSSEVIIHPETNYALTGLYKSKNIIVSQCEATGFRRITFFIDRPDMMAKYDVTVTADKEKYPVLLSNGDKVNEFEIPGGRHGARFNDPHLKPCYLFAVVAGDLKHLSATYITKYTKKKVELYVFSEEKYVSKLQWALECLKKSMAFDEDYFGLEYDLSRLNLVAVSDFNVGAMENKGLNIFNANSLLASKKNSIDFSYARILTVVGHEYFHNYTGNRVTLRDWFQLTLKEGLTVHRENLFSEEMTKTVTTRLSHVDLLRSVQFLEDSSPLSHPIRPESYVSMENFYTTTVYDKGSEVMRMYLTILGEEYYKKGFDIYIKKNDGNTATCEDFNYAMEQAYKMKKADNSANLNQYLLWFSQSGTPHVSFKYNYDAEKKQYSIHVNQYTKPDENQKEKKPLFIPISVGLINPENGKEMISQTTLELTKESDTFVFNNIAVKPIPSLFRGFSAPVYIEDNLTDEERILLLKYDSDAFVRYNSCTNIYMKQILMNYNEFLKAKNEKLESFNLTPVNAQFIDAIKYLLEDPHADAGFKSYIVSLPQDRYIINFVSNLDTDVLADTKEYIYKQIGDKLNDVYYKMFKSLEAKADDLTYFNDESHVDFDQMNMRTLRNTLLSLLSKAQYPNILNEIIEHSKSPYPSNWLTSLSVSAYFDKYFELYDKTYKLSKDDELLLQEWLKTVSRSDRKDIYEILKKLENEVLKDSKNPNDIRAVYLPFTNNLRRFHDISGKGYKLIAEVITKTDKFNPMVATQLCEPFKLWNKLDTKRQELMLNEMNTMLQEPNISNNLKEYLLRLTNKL

[2] = target: T2, Voltage-gated N-type calcium channel alpha-1B subunit/Amyloid beta A4 precursor protein-binding family A member 1 (Homo sapiens, UniProt Q00975+Q02410); assay type: protein assay
[3] = target: T2, Voltage-gated N-type calcium channel alpha-1B subunit/Amyloid beta A4 precursor protein-binding family A member 1; assay type: protein assay; remark: listed apart in the source
[4] = target: T3, C-C chemokine receptor type 6 (Homo sapiens, UniProt P51684); assay: antagonism of CCR6 beta-arrestin recruitment – cell-based, luminescent beta-arrestin readout, dose response (AID 504728); assay type: functional
T3 sequence (P51684 whole entry): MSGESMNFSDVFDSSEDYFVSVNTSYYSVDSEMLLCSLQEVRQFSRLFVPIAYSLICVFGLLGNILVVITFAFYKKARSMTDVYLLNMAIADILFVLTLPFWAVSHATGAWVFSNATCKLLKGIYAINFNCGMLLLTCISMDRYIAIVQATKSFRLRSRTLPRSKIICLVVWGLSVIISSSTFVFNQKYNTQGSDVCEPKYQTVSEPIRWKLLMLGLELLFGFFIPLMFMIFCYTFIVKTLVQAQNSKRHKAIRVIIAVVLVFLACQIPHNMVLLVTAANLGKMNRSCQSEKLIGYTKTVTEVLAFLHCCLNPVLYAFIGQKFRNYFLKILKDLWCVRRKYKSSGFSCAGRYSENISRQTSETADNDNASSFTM

Beta-galactosidase = Beta-galactosidase (Escherichia coli, UniProt Q8VNN2); assay: detection-enzyme interference by beta-gal modulators – biochemical, E. coli enzyme, set 3, artefact control for CCR6 antagonist project, dose response (AID 504712); assay type: functional
[5] = target: Heat shock protein HSP 90-alpha (Homo sapiens, UniProt P07900); assay type: functional, organism-based
[6] = target: T4, Corticotropin-releasing factor receptor 2/Corticotropin-releasing factor-binding protein (Homo sapiens, UniProt P24387+Q13324); assay: Dose Response confirmation of uHTS hits for small molecule antagonists of the CRF-binding protein and CRF-R2 receptor complex.; assay type: functional; conditions: read-out: IC50_Mean
T4 sequence (Q13324 whole entry): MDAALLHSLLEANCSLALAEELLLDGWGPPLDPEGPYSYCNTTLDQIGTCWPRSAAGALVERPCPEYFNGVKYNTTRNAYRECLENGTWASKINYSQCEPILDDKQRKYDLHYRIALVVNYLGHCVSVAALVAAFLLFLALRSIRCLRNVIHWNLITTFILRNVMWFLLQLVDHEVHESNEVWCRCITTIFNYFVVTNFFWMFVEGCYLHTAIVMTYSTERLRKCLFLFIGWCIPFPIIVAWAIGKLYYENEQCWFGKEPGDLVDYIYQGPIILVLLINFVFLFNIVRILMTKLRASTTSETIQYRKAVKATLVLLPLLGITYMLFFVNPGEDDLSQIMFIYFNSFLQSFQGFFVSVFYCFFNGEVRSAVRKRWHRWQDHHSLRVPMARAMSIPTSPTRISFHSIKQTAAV
T4 sequence (P24387 whole entry): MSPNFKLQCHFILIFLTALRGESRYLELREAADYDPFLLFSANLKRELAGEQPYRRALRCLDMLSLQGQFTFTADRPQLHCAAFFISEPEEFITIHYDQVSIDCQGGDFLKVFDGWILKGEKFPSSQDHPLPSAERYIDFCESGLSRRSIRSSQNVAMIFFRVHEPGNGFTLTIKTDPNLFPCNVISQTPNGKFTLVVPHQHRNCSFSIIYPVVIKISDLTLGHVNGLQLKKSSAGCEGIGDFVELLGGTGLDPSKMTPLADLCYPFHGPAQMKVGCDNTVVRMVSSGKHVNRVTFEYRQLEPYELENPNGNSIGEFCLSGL

[7] = target: T4, Corticotropin-releasing factor receptor 2/Corticotropin-releasing factor-binding protein; assay: activators of CRF receptor 2 with binding protein – uHTS hits, confirmation (AID 602473); assay type: functional; conditions: read-out: EC50_Mean
Hexokinase = target: T5, Hexokinase (Trypanosoma brucei, UniProt Q38C41); assay: Confirmation assay for inhibitors of Trypanosoma brucei hexokinase 1-Analogue-first series. [Related pubchem assays (depositor defined):AID1430, AID1632, AID2516, AID2560, AID2579, AID2600, AID449725, AID492951]; assay type: functional
T5 sequence (Q38C41 whole entry): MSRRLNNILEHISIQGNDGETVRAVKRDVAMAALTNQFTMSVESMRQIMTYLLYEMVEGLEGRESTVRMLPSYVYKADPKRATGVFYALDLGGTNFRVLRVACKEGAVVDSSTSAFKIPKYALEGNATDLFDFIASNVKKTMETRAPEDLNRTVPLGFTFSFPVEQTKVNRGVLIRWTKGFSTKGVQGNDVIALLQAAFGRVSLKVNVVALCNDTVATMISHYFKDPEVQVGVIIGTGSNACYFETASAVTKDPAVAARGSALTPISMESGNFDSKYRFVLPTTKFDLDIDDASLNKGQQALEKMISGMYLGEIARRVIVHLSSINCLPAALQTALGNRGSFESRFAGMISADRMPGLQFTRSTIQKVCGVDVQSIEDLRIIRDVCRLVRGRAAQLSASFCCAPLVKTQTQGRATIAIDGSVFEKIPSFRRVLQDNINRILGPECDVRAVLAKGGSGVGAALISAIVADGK

[8] = reduction of Shn3 3'UTR-driven luciferase in osteoblasts – cell-based, Clone20 osteoblasts, firefly luciferase, cherry-picked, dose response (AID 624132); assay type: functional;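 further: firefly luciferase luminescence from reporter carrying the Shn3 3'UTR in osteoblasts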
[9] = loss of viability in HepG2 cells – cell-based, CellTiter-Glo, cherry-picked, cytotoxicity control for Shn3 inhibitor project, dose response (AID 624134); assay type: functional
[10] = non-specific 3'UTR reporter inhibition in Clone20-Shn3RL – cell-based, Renilla luciferase, cherry-picked, counter-screen for Shn3 inhibitor project, dose response (AID 624133); assay type: functional
[11] = target: Photoreceptor-specific nuclear receptor (Homo sapiens, UniProt Q9Y5X4); assay type: functional, cell-based;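 further: CHO-S cells with Gal4-NCOR and VP16-NR2E3 two-hybrid luciferase reporter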
Paired box protein Pax-8 = Paired box protein Pax-8 (Homo sapiens, UniProt Q06710); assay: PAX8 transcriptional activity inhibition in RMG-I – RMG-I cells, luciferase, cherry-pick, dose response (AID 687027); assay type: functional, cell-based;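 further: luciferase reporter driven by Pax8 target thyroperoxidase promoter measured by SteadyGlo luminescence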
[12] = A549 cell cytotoxicity, dose response, cytotoxicity control, plate reader, cherry-pick, antagonist series (AID 743412); assay type: functional, cell-based
[13] = toxicity toward HepG2 liver cells – cell-based, plate reader, cherry-pick, antagonist series, cytotoxicity control, dose response (AID 743416); assay type: functional
[14] = blockers of bursicon-stimulated LGR2 cAMP reporter – cell-based, HEK293, CRE-luciferase reporter, cherry pick, set 2, dose response (AID 743343); assay type: functional;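 further: transfected cells were stimulated with diluted bursicon conditioned medium after compound addition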
[15] = blockade of melanocortin 4 receptor signaling – cell-based, plate reader, cherry pick, counter-screen for LGR2 antagonist project, dose response (AID 743444); assay type: functional;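 further: transfected HEK 293 cells stimulated with alpha-MSH peptide; potency of inhibitors of the alpha-MSH evoked signal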
[16] = viability loss in HEK293 cells – cell-based, plate reader, cherry-picked samples, cytotoxicity control, dose response (AID 743446); assay type: functional

Beta-galactosidase, sequence (Q8VNN2 whole entry): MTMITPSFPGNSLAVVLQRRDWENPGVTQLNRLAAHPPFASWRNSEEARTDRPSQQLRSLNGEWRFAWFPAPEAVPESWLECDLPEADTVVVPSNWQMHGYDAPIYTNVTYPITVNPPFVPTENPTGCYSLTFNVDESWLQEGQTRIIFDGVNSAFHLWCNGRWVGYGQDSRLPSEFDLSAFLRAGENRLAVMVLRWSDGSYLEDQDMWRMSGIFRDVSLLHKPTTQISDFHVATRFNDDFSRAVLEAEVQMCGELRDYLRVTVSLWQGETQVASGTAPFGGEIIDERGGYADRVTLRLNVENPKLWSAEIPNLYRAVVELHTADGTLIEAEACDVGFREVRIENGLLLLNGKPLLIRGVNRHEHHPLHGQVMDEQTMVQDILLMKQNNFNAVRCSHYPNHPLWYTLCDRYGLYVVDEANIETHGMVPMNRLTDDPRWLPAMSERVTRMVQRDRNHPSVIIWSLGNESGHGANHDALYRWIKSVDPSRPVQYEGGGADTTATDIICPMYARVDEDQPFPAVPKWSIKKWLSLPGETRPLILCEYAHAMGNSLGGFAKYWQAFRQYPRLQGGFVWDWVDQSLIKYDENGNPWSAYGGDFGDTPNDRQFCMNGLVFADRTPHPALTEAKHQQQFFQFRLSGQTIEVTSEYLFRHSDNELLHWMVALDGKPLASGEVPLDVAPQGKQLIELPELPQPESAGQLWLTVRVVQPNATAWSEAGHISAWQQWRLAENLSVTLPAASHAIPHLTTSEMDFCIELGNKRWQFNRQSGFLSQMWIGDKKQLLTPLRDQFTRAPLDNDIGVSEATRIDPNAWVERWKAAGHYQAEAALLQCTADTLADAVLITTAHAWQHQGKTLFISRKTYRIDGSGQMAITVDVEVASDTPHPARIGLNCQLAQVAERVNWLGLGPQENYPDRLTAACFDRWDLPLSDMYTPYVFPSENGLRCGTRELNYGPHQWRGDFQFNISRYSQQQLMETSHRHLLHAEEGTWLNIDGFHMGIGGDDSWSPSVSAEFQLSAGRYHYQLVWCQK
T2 sequence (Q00975 whole entry): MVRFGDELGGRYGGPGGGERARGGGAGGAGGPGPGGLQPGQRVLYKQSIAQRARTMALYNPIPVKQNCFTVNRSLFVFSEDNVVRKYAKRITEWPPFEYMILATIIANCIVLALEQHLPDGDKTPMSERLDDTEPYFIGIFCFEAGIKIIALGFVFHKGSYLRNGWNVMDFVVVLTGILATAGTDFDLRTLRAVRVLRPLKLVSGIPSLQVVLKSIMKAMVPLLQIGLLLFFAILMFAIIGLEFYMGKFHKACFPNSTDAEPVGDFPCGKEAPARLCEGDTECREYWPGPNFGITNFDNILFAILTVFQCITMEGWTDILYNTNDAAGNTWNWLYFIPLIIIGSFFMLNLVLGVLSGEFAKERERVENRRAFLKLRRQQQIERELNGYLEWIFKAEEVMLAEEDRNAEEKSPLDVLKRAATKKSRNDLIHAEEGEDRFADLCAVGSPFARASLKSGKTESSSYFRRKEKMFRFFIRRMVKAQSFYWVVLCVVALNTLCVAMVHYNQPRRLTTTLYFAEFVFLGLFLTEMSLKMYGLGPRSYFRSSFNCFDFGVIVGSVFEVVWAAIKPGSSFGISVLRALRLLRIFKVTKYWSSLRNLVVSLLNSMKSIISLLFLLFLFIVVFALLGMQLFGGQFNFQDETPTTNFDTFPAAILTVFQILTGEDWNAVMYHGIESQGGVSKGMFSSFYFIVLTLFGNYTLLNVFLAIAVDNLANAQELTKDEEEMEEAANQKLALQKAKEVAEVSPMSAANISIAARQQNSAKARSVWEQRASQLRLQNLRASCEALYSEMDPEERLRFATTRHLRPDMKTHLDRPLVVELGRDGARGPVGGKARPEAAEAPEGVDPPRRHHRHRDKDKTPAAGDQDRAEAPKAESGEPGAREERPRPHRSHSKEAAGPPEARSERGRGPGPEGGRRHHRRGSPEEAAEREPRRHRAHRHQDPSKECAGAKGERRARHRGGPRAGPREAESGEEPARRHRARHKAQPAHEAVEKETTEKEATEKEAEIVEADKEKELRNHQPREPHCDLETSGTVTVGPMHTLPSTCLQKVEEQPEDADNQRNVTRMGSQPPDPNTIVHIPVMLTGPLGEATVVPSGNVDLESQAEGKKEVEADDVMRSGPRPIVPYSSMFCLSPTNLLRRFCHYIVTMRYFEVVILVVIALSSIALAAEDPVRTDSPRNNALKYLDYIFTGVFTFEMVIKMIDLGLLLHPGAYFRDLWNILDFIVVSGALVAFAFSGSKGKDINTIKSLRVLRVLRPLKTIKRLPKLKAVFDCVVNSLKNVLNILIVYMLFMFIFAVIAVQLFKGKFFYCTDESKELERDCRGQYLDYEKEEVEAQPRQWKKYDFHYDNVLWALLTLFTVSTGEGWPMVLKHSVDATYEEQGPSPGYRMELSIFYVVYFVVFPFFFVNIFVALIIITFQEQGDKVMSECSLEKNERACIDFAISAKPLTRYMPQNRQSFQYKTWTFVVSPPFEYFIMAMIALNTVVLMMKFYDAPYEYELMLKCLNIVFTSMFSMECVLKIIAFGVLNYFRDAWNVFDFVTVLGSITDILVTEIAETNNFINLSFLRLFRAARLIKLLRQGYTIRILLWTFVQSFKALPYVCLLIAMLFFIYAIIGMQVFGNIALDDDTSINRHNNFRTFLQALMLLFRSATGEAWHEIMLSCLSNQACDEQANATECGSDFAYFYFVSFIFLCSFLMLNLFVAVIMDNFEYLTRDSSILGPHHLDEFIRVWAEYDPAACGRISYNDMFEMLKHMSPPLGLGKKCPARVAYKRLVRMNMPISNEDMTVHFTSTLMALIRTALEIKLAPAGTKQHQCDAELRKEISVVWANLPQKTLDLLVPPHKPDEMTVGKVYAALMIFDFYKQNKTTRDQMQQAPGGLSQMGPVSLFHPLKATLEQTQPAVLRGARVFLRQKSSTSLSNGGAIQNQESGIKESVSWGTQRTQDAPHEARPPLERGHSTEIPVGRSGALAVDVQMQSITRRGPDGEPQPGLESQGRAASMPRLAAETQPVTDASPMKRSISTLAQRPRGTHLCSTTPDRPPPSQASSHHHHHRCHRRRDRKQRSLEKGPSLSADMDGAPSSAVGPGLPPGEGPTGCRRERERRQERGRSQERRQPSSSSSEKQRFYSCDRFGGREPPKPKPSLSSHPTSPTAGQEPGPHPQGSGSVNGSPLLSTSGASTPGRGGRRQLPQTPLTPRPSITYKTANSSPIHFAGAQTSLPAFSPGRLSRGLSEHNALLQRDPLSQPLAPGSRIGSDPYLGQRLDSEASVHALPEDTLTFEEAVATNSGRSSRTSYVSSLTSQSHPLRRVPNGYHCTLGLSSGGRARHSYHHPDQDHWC
T2 sequence (Q02410 whole entry): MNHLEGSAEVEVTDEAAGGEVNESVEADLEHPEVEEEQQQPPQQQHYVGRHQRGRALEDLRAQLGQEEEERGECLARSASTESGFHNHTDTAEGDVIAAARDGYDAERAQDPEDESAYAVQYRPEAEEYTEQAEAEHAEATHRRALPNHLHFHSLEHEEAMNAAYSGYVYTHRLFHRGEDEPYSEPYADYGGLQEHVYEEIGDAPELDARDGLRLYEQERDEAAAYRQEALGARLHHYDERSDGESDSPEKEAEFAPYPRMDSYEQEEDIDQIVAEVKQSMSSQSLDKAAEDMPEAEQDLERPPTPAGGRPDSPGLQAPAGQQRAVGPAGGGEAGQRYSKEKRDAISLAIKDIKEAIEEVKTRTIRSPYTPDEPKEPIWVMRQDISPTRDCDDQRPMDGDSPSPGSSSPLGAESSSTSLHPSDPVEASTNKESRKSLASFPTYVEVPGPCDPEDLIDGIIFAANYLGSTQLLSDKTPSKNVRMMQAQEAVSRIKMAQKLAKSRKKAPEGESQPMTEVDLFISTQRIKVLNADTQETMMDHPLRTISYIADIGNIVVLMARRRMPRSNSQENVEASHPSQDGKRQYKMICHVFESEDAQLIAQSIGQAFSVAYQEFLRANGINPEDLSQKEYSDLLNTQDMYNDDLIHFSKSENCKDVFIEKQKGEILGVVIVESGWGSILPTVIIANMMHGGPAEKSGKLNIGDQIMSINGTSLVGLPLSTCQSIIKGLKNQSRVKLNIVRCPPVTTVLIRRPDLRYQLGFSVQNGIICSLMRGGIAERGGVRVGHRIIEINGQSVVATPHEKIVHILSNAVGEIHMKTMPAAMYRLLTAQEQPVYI
Paired box protein Pax-8, sequence (Q06710 whole entry): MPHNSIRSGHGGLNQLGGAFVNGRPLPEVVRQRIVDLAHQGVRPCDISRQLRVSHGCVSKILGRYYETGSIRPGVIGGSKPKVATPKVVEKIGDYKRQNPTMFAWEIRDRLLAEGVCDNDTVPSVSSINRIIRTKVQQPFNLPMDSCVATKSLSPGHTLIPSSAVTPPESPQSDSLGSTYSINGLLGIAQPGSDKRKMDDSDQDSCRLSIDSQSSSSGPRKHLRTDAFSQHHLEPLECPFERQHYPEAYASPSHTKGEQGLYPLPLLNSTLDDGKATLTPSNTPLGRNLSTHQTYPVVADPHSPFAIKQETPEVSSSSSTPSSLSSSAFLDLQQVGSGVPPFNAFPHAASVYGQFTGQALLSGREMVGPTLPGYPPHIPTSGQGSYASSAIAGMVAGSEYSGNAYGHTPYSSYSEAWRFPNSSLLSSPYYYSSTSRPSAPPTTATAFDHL
Photoreceptor-specific nuclear receptor, sequence (Q9Y5X4 whole entry, the tested form may be a part): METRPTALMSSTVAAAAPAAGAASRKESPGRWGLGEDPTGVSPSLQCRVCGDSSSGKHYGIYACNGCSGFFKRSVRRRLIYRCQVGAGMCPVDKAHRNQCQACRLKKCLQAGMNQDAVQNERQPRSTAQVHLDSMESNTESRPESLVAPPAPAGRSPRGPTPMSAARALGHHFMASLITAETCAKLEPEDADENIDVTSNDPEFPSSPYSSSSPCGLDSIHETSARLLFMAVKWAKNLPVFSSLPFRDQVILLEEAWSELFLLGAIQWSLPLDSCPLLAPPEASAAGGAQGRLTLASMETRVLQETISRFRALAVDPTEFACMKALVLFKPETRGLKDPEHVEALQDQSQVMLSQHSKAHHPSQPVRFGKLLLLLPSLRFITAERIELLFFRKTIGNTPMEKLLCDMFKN

Cn1cc(Br)c(C(=O)NNC(=O)c2cccc(Br)c2)n1
IC50 [1]: > 100 µM (inactive)

CNC(=O)c1nc[nH]c1C(=O)N[C@@H](CC(C)C)C(=O)OC(C)(C)C
IC50 (Aminopeptidase N): 39.3 µM (active)

C/C=C\C=C/C(=O)Nc1cccc(C2=NOC3(C2)C[C@@H](C(N)=O)N(C(=O)/C=C/C=C\C)C3)c1 (stereo partly specified)
IC50 [2]: 10.1 µM (active) | IC50 [3]: 4.01 µM (active)

COc1ccc(/C=C2/CCC(CN3CCOCC3)C2=O)cc1 (stereo unspecified)
IC50 [4]: 21.1 µM (inactive) | IC50 (Beta-galactosidase): > 66.6 µM (inactive) | AC50 [5]: 0.902 µM (active) | IC50 [6]: > 47.1 µM (inactive) | EC50 [7]: > 53 µM (inactive)

CN(Cc1ccccc1)C(=O)Cn1sc2ccccc2c1=O
IC50 (Hexokinase): 7.87 µM (active)

Cc1ccc(C(=O)Nc2cc(Cl)ccc2C(=O)O)cc1C
IC50 (Hexokinase): 10.7 µM (active)

O=C(Nc1cc(Cl)ccc1C(=O)O)c1ccc2ccccc2c1
IC50 (Hexokinase): 5.41 µM (active)

CC(=O)O/C(=C1\CC2C3CC=C4CC(OC(C)=O)CCC4(C)C3CCC2(C)C1=O)C(F)(F)F (stereo unspecified)
IC50 [4]: > 66.6 µM (inactive) | IC50 (Beta-galactosidase): > 66.6 µM (inactive)

CC(=O)Nc1ccc(Sc2ccc([N+](=O)[O-])o2)cc1
IC50 [4]: > 66.6 µM (inactive) | IC50 (Beta-galactosidase): > 66.6 µM (inactive) | AC50 [8]: 2.15 µM (active) | AC50 [9]: 20.6 µM (active) | AC50 [10]: 11.2 µM (active) | IC50 [11]: 2.72 µM (active) | AC50 (Paired box protein Pax-8): 7.36 µM (active) | AC50 [12]: 37 µM (active) | AC50 [13]: 13.8 µM (active) | AC50 [14]: 26.4 µM (active) | AC50 [15]: 22.7 µM (active) | AC50 [16]: 7.13 µM (active)
